Assay results reported in patent US20120129875A1, “SUBSTITUTED QUINAZOLINES AS FUNGICIDES” (SYNGENTA CROP PROTECTION, LLC, priority 2009, published 2012).

Experiments:
Assay type in all cases: in vivo
[1] = system: Erysiphe necator (Uncinula necator); assay: Erysiphe necator (Uncinula necator) / grape / preventative (powdery mildew on grape); details: grape seedlings cv. Gutedel, inoculated 1 day after application, vs untreated control, read-out: disease control
Description: Erysiphe necator (Uncinula necator)/Grape/Preventative (Powdery Mildew on Grape) 5-week old grape seedlings cv. Gutedel are treated with the formulated test compound in a spray chamber. The test plants are inoculated by shaking plants infected with grape powdery mildew above them 1 day after application. The inoculated test plants are incubated at 24/22° C. (day/night) and 70% rh under a light regime of 14/10 h (light/dark) and the percentage leaf area covered by disease is assessed when an appropriate level of disease appears on untreated check plants (7-9 days after application).

[2] = system: Mycosphaerella arachidis (Cercospora arachidicola); assay: Mycosphaerella arachidis (Cercospora arachidicola) / peanut / preventative; details: peanut plants cv. Georgia Green, inoculated one day after application, vs untreated control, read-out: disease control
Description: Mycosphaerella arachidis (Cercospora arachidicola)/Peanut/Preventative 3-week old peanut plants cv. Georgia Green are treated with the formulated test compound in a spray chamber. The test plants are inoculated by spraying them with a spore suspension on their lower leaf surface one day after application. After an incubation period of 4 days under a plastic hood at 23° C. and 100% rh, the test plants are kept at 23° C./20° C. (day/night) and 70% rh in a greenhouse. The percentage leaf area covered by disease is assessed when an appropriate level of disease appears on untreated check plants (12-14 days after application).

Alternaria solani = Alternaria solani / tomato / preventative (Alternaria on tomato); details: tomato plants cv. Roter Gnom, inoculated two days after application, vs untreated control, read-out: disease control
Description: Alternaria solani/Tomato/Preventative (Alternaria on Tomato) 4-week old tomato plants cv. Roter Gnom are treated with the formulated test compound in a spray chamber. The test plants are inoculated by spraying them with a spore suspension two days after application. The inoculated test plants are incubated at 22/18° C. (day/night) and 95% rh in a greenhouse and the percentage leaf area covered by disease is assessed when an appropriate level of disease appears on untreated check plants (5-7 days after application).

[3] = system: Pyrenophora teres (Helminthosporium teres); assay: Pyrenophora teres (Helminthosporium teres) / barley / preventative (net blotch on barley); details: barley plants cv. Regina, inoculated 2 days after application, vs untreated control, read-out: disease control
Description: Pyrenophora teres (Helminthosporium teres)/Barley/Preventative (Net Blotch on Barley) 1-week old barley plants cv. Regina are treated with the formulated test compound in a spray chamber. The test plants are inoculated by spraying them with a spore suspension 2 days after application. The inoculated test plants are incubated at 20° C. and 95% rh and the percentage leaf area covered by disease is assessed when an appropriate level of disease appears on untreated check plants (5-7 days after application).

Plasmopara viticola = Plasmopara viticola / grape / preventative (grape downy mildew); details: grape seedlings cv. Gutedel, inoculated one day after application, vs untreated control, read-out: disease control
Description: Plasmopara viticola/Grape/Preventative (Grape Downy Mildew)
5-week old grape seedlings cv. Gutedel are treated with the formulated test compound in a spray chamber. The test plants are inoculated by spraying a sporangia suspension on their lower leaf surface one day after application. The inoculated test plants are incubated at 22° C. and 100% rh in a greenhouse and the percentage leaf area covered by disease is assessed when an appropriate level of disease appears on untreated check plants (6-8 days after application).

[4] = system: Phaeosphaeria nodorum (Septoria nodorum); assay: Phaeosphaeria nodorum (Septoria nodorum) / wheat / leaf disc preventative (glume blotch); details: Parastagonospora nodorum, foliar, wheat leaf segments cv. Kanzler on agar, inoculated 2 days after application, vs untreated control, read-out: disease control
Description: Phaeosphaeria nodorum (Septoria nodorum)/Wheat/Leaf Disc Preventative (Glume Blotch) Wheat leaf segments cv. Kanzler are placed on agar in a multiwell plate (24-well format) and sprayed with the formulated test compound diluted in water. The leaf disks are inoculated with a spore suspension of the fungus 2 days after application. The inoculated test leaf disks are incubated at 20° C. and 75% rh under a light regime of 12 h light/12 h darkness in a climate cabinet and the activity of a compound is assessed as percent disease control compared to untreated when an appropriate level of disease damage appears in untreated check leaf disks (5-7 days after application).

[5] = system: Botryotinia fuckeliana (Botrytis cinerea); assay: Botryotinia fuckeliana (Botrytis cinerea) / tomato / preventative (Botrytis on tomato); details: tomato plants cv. Roter Gnom, inoculated two days after application, vs untreated control, read-out: disease control
Description: Botryotinia fuckeliana (Botrytis cinerea)/Tomato/Preventative (Botrytis on Tomato) 4-week old tomato plants cv. Roter Gnom are treated with the formulated test compound in a spray chamber. The test plants are inoculated by spraying them with a spore suspension two days after application. The inoculated test plants are incubated at 20° C. and 95% rh in a greenhouse and the percentage leaf area covered by disease is assessed when an appropriate level of disease appears on untreated check plants (5-6 days after application).

Phytophthora infestans = assay: whole plant or invertebrate; details: in Solanum tuberosum, read-out: disease control
[6] = system: Mycosphaerella graminicola (Septoria tritici); assay: Mycosphaerella graminicola (Septoria tritici) / wheat / preventative (Septoria tritici leaf spot on wheat); details: Zymoseptoria tritici, wheat plants cv. Riband, inoculated one day after application, vs untreated control, read-out: disease control
Description: Mycosphaerella graminicola (Septoria tritici)/Wheat/Preventative (Septoria tritici Leaf Spot on Wheat) 2-week old wheat plants cv. Riband are treated with the formulated test compound in a spray chamber. The test plants are inoculated by spraying a spore suspension on them one day after application. After an incubation period of 1 day at 22° C./21° C. (day/night) and 95% rh, the test plants are kept at 22° C./21° C. (day/night) and 70% rh in a greenhouse. The percentage leaf area covered by disease is assessed when an appropriate level of disease appears on untreated check plants (16-19 days after application).

Measured: pest or weed control at 200 ppm

Cc1ccc(C)c(-c2cccc(-c3ncc4ccccc4n3)n2)c1 [2/54]
≥ 80%: [1] | [2] | Alternaria solani | [3] | Plasmopara viticola

COc1cccc(-c2cccc(-c3ncc4ccccc4n3)n2)c1F [2/60]
≥ 80%: [4] | Alternaria solani | [5] | Plasmopara viticola | Phytophthora infestans

COc1ccc(Cl)cc1-c1cccc(-c2ncc3ccccc3n2)n1 [2/68]
≥ 80%: [1] | Alternaria solani | Plasmopara viticola

Cc1ccc(F)c(-c2nc(-c3ncc4ccccc4n3)ccc2C)c1 [3/9]
not listed: [1] | [4] | Phytophthora infestans
≥ 80%: all other assays above

Cc1ccc(-c2nc(-c3ncc4ccccc4n3)ccc2C)cc1Cl [3/21]
≥ 80%: [1] | Alternaria solani | [5] | Plasmopara viticola

Cc1ccc(-c2ncc3ccccc3n2)nc1-c1cccc(F)c1F [3/38]
not listed: [4] | Phytophthora infestans | [6]
≥ 80%: all other assays above

COc1ccc(-c2nc(-c3ncc4ccccc4n3)ccc2C)c(C)c1 [3/53]
not listed: [4] | Phytophthora infestans | [6]
≥ 80%: all other assays above

Cc1ccc(-c2ncc3ccccc3n2)nc1-c1ccc(F)cc1 [3/72]
≥ 80%: Alternaria solani | [5] | [3] | Plasmopara viticola | Phytophthora infestans

Cc1ccc(-c2ncc3ccccc3n2)nc1-c1ccc(F)cc1F [3/83]
≥ 80%: Alternaria solani | [6] | [5] | [3] | Plasmopara viticola

Cc1ccc(-c2ncc3ccccc3n2)nc1-c1ccc(F)c(F)c1 [3/89]
not listed: [4] | Phytophthora infestans
≥ 80%: all other assays above

Cc1ccc(-c2nc(-c3ncc4ccccc4n3)ccc2C)cc1F [3/94]
≥ 80%: Alternaria solani | [6] | [5] | [3] | Plasmopara viticola

Cc1ccc(-c2ncc3ccccc3n2)nc1-c1ccc(F)cc1O [3/101]
≥ 80%: Alternaria solani | [6] | [5] | [3] | Plasmopara viticola

Clc1cccc(Cc2cccc(-c3ncc4ccccc4n3)n2)c1 [6/11]
not listed: Plasmopara viticola | [4] | Phytophthora infestans
≥ 80%: all other assays above

Cc1cccc(Cc2cccc(-c3ncc4ccccc4n3)n2)c1F [6/12]
not listed: Plasmopara viticola | [4] | Phytophthora infestans
≥ 80%: all other assays above

Clc1ccccc1Cc1cccc(-c2ncc3ccccc3n2)n1 [6/16]
not listed: [2] | [4] | Phytophthora infestans
≥ 80%: all other assays above

Cc1ccc(-c2ncc3ccccc3n2)nc1Cc1cccc(C)c1F [7/7]
≥ 80%: [1] | Alternaria solani | [3] | Plasmopara viticola

Cc1cccc(-c2ncc3ccccc3n2)n1 [10/4]
≥ 80%: [1] | [2]

c1cc(-c2ncc3ccccc3n2)nc(C2CC2)c1 [10/7]
≥ 80%: [1] | [2] | [5] | Plasmopara viticola

Cc1ccc(-c2nc(C)c3ccccc3n2)nc1-c1ccccc1 [11/8, 4-Methyl-2-(5-methyl-6-phenyl-pyridin-2-yl)-quinazoline]
not listed: [4] | [5] | Phytophthora infestans
≥ 80%: all other assays above

Cc1nc(-c2cccc(Cc3ccccc3)n2)nc2ccccc12 [12/6]
≥ 80%: [4] | [1] | Alternaria solani
